Measured values reported in article PMC5716993, “The interdomain flexible linker of the polypeptide GalNAc transferases dictates their long-range glycosylation preferences” (Nature Communications, 2017).
“Also recorded” adds a separate entry of the source.

Target: T1, GalNAc-T4 (Homo sapiens, UniProt Q8N4A0)
T1 construct: amino acid residues 36–578 of the human GalNAc-T4; histidine tag (C); made in house; host or cells: Pichia pastoris SMD1168 (pPICZαA, secreted)
Experiment: Surface plasmon resonance
Type: binding
Conditions: SPR; peptide 0.01–5 mM; 25 °C, pH 7.5, 100 µM UDP, 4 mM MnCl2; in words
Method: SPR experiments were performed at 25 °C with a Biacore X-100 apparatus (Biacore AB) in 25 mM Tris buffer, 1 mM DTT, 4 mM MnCl2, 100 µM UDP, 0.01% surfactant P20, pH 7.5 (running buffer) at 25 °C. Flow cells (CM5 sensor chip; Biacore) were activated for 7 min by injecting 140 µl of 50 mM N-hydroxysuccinimide (NHS): 200 mM ethyl-3(3dimethylamino) propylcarbodiimide (EDC). GalNAc-T4 was immobilized on a flow cell 2 by injection of a 100 µg/ml protein solution diluted with 10 mM sodium acetate buffer with a flow rate of 10 µl/min for 7 min followed by an injection of 130 µl ethanolamine to block any remaining activated groups on the surface. The level of immobilization reached was about 8000 RU. Flow cell 1, used as reference, was blocked with ethanolamine at the same conditions of flow cell 2 without immobilization of protein. Affinity experiments were made using a series of different concentrations of peptide 3 in the range of 0.01–5 mM with a flow rate of 30 µl/min during 100 s. Each injection was followed by a 100 s injection of running buffer (dissociation phase). No regeneration steps were performed between injections. Response data were collected at real time and analyzed with the Biacore® X-100 Evaluation software and plotted as response shift versus analyte concentration.

T1 sequence (Q8N4A0 36-578): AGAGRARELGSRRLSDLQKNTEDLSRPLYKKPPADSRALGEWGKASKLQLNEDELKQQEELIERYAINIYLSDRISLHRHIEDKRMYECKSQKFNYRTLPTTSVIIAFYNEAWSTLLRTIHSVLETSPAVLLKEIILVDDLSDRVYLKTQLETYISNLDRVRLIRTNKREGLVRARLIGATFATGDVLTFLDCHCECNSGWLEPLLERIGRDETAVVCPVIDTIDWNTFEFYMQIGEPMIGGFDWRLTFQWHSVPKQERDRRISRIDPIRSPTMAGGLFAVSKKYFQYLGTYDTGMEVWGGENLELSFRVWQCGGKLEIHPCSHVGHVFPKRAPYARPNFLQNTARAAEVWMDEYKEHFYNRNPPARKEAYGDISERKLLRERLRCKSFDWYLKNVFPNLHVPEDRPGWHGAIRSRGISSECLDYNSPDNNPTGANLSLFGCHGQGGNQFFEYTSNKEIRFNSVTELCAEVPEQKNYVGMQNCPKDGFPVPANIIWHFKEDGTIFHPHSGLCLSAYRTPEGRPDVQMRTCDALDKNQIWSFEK

GAT*GAGAGAGTTPGPG [Peptide 3, monoglycopeptide GAT*…, T* denotes the Thr-O-GalNAc moiety]
Kd determinability / binding saturation: binding saturation could not be achieved; also recorded: binding saturation was not achieved
